# Values joined by “and” are separate entries in the source; they are usually repeats but may differ in a detail not shown here. Identical values can stand only once. Active and inactive are the calls of the source.
# What was measured:
# [1] = target: Serine/threonine-protein phosphatase (Homo sapiens, UniProt Q9BPW0); test: inhibition of protein phosphatase 5 activity – biochemical, fluorescence, dose response (AID 2395)
# [2] = target: T1, Sentrin-specific protease 8 (Homo sapiens, UniProt Q96LD8); assay type: functional;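 note: luminescence read-out of SENP8 inhibition, dose-response confirmation following an ultra-high-throughput screen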
# T1 sequence (Q96LD8 whole entry): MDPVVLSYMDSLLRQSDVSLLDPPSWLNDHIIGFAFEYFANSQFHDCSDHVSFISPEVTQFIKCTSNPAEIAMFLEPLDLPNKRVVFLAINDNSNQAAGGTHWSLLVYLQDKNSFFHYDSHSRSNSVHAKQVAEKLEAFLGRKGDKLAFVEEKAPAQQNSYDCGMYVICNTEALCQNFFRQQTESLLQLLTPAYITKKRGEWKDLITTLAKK
# [3] = target: T2, Mannose-6-phosphate isomerase (Homo sapiens, UniProt P34949); test: MPI enzyme activity inhibition – biochemical, fluorescence intensity, coupled assay, primary screen (AID 1209)
# T2 sequence (P34949 whole entry): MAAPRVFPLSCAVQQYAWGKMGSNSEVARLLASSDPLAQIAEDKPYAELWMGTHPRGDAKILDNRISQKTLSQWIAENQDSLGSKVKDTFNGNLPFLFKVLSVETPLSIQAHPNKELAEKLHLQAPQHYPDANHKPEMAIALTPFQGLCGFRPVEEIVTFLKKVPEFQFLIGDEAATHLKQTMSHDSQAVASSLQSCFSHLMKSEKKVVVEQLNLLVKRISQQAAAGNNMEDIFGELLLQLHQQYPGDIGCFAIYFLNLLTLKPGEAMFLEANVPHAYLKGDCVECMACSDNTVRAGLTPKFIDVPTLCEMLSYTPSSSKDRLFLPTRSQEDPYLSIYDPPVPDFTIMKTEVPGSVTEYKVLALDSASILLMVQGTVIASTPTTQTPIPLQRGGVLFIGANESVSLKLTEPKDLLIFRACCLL
# [4] = target: T2, Mannose-6-phosphate isomerase; test: MPI inhibition at elevated mannose 6-phosphate – biochemical, fluorescence intensity, high mannose 6-phosphate, primary screen (AID 1220)
# [5] = target: T3, Sentrin-specific protease 7 (Homo sapiens, UniProt Q9BQF6); test: inhibition of human SENP7 cleavage activity – biochemical, luminescence, SAR follow-up (AID 504497); assay type: functional
# T3 sequence (Q9BQF6 whole entry): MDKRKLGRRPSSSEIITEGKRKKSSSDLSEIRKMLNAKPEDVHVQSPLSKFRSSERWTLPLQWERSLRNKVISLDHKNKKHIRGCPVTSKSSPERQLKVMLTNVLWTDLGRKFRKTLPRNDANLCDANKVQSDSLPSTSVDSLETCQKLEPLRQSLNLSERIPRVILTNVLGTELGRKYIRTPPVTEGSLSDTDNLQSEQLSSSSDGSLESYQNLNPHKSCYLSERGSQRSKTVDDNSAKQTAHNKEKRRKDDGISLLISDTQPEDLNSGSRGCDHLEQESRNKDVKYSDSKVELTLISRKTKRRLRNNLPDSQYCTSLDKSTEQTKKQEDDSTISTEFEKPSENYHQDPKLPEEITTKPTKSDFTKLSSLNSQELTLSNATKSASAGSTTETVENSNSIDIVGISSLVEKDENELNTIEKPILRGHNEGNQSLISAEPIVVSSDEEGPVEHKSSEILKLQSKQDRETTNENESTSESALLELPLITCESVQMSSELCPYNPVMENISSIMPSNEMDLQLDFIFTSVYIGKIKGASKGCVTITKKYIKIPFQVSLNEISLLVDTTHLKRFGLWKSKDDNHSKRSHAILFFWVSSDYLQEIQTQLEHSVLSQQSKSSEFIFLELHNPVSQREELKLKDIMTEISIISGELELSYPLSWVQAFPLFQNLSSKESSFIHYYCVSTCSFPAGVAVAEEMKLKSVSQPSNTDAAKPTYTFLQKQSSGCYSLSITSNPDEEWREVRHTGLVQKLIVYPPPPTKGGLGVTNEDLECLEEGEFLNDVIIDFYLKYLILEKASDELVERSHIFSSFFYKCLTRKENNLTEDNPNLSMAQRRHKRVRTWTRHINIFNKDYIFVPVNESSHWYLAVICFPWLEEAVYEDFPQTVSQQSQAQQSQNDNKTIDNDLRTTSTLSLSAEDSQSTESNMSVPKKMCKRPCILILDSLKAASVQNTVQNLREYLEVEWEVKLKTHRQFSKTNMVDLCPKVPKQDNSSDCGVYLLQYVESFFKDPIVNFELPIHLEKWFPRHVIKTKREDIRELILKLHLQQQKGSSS
# [6] = target: T4, Replicative DNA helicase DnaB (Mycobacterium tuberculosis, UniProt P9WMR3); test: DnaB intein splicing inhibitors, dose response, biochemical, cell-free fluorescence (AID 449749); assay type: functional
# T4 sequence (P9WMR3 whole entry): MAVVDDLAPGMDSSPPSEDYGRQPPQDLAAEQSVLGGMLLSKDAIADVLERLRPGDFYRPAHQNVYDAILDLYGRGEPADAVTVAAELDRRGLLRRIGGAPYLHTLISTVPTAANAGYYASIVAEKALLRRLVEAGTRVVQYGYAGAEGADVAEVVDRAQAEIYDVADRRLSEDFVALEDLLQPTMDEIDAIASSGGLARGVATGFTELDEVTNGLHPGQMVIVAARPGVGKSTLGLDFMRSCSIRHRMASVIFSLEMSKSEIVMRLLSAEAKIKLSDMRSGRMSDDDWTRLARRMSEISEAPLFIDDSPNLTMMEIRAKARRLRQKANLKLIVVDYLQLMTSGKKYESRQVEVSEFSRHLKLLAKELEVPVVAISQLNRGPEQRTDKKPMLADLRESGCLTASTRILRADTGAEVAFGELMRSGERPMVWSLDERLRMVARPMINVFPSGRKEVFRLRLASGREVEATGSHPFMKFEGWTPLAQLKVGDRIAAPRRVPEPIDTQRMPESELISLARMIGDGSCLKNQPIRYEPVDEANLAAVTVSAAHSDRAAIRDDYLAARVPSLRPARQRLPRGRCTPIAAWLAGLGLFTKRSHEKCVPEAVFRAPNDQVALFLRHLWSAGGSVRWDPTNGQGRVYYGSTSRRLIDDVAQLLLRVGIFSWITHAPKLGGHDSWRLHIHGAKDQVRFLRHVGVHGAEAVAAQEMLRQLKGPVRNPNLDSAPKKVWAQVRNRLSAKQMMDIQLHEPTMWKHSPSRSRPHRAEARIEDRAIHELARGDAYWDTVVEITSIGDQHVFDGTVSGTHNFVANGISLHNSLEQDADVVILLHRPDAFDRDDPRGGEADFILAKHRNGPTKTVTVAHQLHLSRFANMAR
# BJ = test: growth inhibition of engineered Ras-driven BJ cells – cell-based, alamar blue fluorescence, cherrypicked samples, dose response (AID 2631); assay type: functional; conditions: Homo sapiens;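 note: confirmatory dose-response assay in RAS-dependent BJ fibroblasts engineered with TERT, LT and ST, with cytotoxicity read by fluorescence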
# [7] = cytotoxicity toward Colo320 cells – cell-based, CellTiter-Glo luminescence, IC50, dose response (AID 1117334); assay type: functional; conditions: COLO 320
# [8] = cytotoxicity toward HT-29 cells – cell-based, CellTiter-Glo luminescence, IC50, dose response (AID 1117330); assay type: functional
# Sequence of Serine/threonine-protein phosphatase (Q9BPW0 whole entry): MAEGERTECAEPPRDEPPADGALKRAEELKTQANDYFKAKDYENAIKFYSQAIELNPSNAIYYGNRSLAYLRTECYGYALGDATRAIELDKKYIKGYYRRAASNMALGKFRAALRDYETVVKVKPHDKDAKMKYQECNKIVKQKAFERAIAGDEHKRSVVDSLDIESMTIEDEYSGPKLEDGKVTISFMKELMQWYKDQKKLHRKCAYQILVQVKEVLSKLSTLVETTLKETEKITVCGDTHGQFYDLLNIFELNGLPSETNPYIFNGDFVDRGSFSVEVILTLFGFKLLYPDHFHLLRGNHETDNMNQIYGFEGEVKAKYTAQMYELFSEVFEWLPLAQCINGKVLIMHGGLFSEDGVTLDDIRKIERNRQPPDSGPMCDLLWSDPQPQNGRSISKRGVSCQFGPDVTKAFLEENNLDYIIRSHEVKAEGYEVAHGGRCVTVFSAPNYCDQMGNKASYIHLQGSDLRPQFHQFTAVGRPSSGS
structure (smiles),measurement,setting,value
CCCOc1cc2c(C#N)c(N3CCCC3)nc(N)c2c(N)n1,IC50,[1],9.93 µM (active)
same,IC50,[2],4.32 µM (active)
Oc1ccc(/C=N/Nc2cc(N3CCCC3)nc(N3CCCC3)n2)cc1O,IC50,[3],> 50 µM (not active)
same,IC50,[4],> 50 µM (not active)
same,IC50,[5],58.1 µM (active) and 39.7 µM (active)
Cc1cc2nc3ccc(N(C)C)cc3[s+]c2cc1N [TOLONIUM CHLORIDE],AC50,[6],77.1 µM (active)
same,EC50,BJ,0.491 µM (inconclusive)
same,IC50,[7],0.987 µM (active)
same,IC50,[8],5.06 µM (inactive)
